Measurements as given in publication PMC4335503, “Novel Inhibitors of Cholesterol Degradation in Mycobacterium tuberculosis Reveal How the Bacterium’s Metabolism Is Constrained by the Intracellular Environment” (PLoS Pathogens, 2015).

How the values were obtained:
[1] = molecular target: T1, PrpC (2-methylcitrate synthase, Rv1131) (Mycobacterium tuberculosis, UniProt I6Y9Q3); test: biochemical
T1 construct: full-length, C-terminal 6x-His tag

[2] = molecular target: HsaAB (HsaA, of the two-component flavin-dependent hydroxylase) (Mycobacterium tuberculosis, UniProt P9WJA1); test: biochemical
HsaAB (HsaA, of the two-component flavin-dependent hydroxylase), sequence (P9WND9 whole entry): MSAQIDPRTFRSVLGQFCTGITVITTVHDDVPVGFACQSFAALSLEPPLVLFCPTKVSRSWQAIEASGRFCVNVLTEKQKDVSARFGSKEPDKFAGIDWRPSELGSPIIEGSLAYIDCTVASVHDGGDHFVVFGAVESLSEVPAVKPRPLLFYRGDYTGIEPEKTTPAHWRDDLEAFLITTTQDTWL
HsaAB (HsaA, of the two-component flavin-dependent hydroxylase), sequence (P9WJA1 whole entry): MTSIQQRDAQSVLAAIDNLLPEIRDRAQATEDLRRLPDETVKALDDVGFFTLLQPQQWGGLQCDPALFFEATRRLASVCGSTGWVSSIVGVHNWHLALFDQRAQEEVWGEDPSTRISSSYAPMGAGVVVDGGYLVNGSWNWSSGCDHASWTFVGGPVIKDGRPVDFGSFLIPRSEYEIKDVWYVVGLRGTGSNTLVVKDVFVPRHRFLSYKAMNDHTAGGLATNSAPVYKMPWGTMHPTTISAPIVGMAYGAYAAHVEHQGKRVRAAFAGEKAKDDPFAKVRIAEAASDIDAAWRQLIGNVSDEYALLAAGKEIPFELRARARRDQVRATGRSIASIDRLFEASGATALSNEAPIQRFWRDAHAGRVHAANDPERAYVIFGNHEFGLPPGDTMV

T1 sequence (I6Y9Q3 whole entry): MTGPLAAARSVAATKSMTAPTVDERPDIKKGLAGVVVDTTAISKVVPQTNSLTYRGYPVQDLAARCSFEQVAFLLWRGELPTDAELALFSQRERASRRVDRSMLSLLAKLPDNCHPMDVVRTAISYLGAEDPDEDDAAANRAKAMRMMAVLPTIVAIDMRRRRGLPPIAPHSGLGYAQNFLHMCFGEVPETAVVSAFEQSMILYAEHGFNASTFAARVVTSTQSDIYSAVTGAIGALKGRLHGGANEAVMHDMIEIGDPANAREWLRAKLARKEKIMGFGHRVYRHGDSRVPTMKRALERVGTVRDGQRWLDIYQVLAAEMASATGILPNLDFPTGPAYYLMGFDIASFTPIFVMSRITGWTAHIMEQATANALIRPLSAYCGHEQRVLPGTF

Which IC50 [1] does the source give for `Cc1nnc(NS(=O)(=O)c2ccc(NC(=O)c3cc(-c4ccc(Cl)cc4)oc3C(F)(F)F)cc2)s1` [V-13–009920, 5-(4-chlorophenyl)-N-(4-(N-(5-methyl-1,3,4-thiadiazol-2-yl)sulfamoyl)phenyl)-2-(trifluoromethyl)furan-3-carboxamide] here?
The IC50 was 4 ± 1.1 µM.

With `Cc1noc(C)c1C(=O)Nc1nnc(-c2ccccc2)s1` [V-13–011503, 3,5-dimethyl-N-(5-phenyl-1,3,4-thiadiazol-2-yl)-1,2-oxazole-4-carboxamide] as the compound, how does the IC50 [2] read?
The IC50 was 11 ± 2 µM.

Which IC50 [2] does the source give for `Cc1cc(=O)n2[nH]c(-c3ccc(F)cc3)nc2n1` [V-13–012725, 2-(4-fluorophenyl)-5-methyl-1H-[1,2, 4]triazolo[1,5-a]pyrimidin-7-one] here?
The IC50 was 5 ± 0.8 µM.
